{
  "source": "patent US11576987B2",
  "about": "“Compositions and methods of treating melanoma” (UNIVERSITY OF IOWA RESEARCH FOUNDATION, priority 2016, dated 2023)",
  "key": {"MCR1 expression": {"tested_on": "MCR1 expression", "assay": "Pharmacological enhancement of MCR1 expression in human melanoma cells by drug incubation", "format": "cell-based", "conditions": "for MCR1 expression: metastatic melanoma cells", "description": "Melanoma if detected early can be cured by surgery, but metastatic melanoma is lethal. New therapies (e.g., immunotherapy; BRAF inhibition, BRAFi) and combinations extend life, but low response rates, acquired drug resistance, and serious side effects are major challenges to improving outcomes for disseminated disease (5 y survival 17%). Peptide-based radionuclide therapy targeted to the melanocortin-receptor type 1 (MCR1-RT) has long been considered a promising alternative; and MCR1-RT has achieved complete responses in mouse models (B16). However, MCR1 expression is heterogeneous/low in human melanoma, and as a result, no previous MCR1-RT study has employed successfully human melanoma cell xenografts. […] This introduces innovative Pb-specific chelator combined with a “click-cyclized” peptide (PSC-C-MCR1) to improve tumor:kidney ratio of radionuclide uptake 7-fold. An effective therapy for metastatic melanoma is developed that combines MCR1-RT with pharmacological agents (PBA; BRAFi/MEKi; HDACi) that enhance MCR1 expression.\nMelanoma is the fastest growing cancer incidence in the United States. Surgery combined with radiation can be curative at early stages. However, metastatic melanoma is almost uniformly fatal (5-yr survival 17%). Recent breakthrough targeted MAPKi therapies (e.g., BRAFi) and immunotherapies (e.g., PD-1 inhibitors) have improved outcomes, but low response rates, acquired drug resistance, and adverse side effects limit quality of life for metastatic melanoma patients. For example, approval of immune-checkpoint inhibitor ipilimumab was based on an improvement in overall survival of only 3.7 months (overall response <15%). Combination immunotherapies have improved response (up to 61%), but grade 3/4 adverse events (up to 55%) often lead to therapy discontinuation (up to 36%). For targeted therapies, BRAF inhibitor vemurafenib was approved based on overall survival at 6 months of 84% vs 64% in the control arm (dacarbazine). Combining BRAFi with MEK inhibitors (MEKi) has led to modest improvements, yet recurrence is virtually inevitable. The mechanisms of acquired drug resistance are complex, and include altered/alternative oncogenic pathways; tumor heterogeneity; and enhanced DNA repair. Melanocortin-receptor type 1 targeted radionuclide therapy (MCR1-RT) has long been considered a promising alternative treatment for melanoma; and MCR1-targeted α-particle therapy (^212Pb) has achieved complete responses in mice bearing mouse (B16) tumors that highly express MCR1. However, these studies have been confined primarily to mouse melanoma (B16) cells because MCR1 expression is heterogeneous/low in human melanoma.\nCombination therapies for metastatic melanoma are emerging as common practice (e.g., BRAFi plus MEK; and combination immunotherapies), but melanoma almost invariably develops resistance. MCR1-RT has long been considered a promising alternative, but previous therapy studies have been limited to the use of B16 mouse melanoma cells that highly express the MCR1 protein, because native MCR1 expression in human melanoma is heterogeneous/low."}, "MC1R expression": {"tested_on": "MC1R expression", "assay": "Real-time PCR analysis of MC1R expression in melanoma cells", "format": "cell-based, human", "conditions": "substantiated by flow cytometry and radiopeptide binding", "protocol": "FIG. 10. Real-time PCR analysis of MC1R expression in A2058 and MEWO melanoma cells. A2058 cells were exposed to BRAFi GSK2118436, MEKi GSK1120212 and HDACi PBA for 24 h. Similarly, MEWO cells were treated with PBA and SAHA. Total RNA was isolated and reverse transcripted to cDNA. Real-time PCR was performed using 50 ng of each cDNA sample with labeled primer VIC-MC1R and FAM-NADPH. mRNA fold changes were calculated by ΔΔCt method and expressed as (n=3; Mean±SEM).\nqPCR measurements are included to measure the change in MCR1 mRNA with changes in the concentration and incubation time for each drug and combinations (FIG. 10). These experiments are carried out as in FIG. 10 according to manufacturers' protocols, cells are seeded into 6-well plates until ˜80% confluent. After drug treatments, total RNA is isolated (Qiagen RNeasy Mini Kit). 1 μg of total RNA from each cell sample is used for reverse transcription using a high capacity reverse transcription kit (Applied Biosystem). cDNA samples are kept at −80° C. until use. Upon use, cDNA templates are employed in the qRT-PCR using a Taqman Gene Expression Assay for human MC1R (Assay ID: Hs00267167_s1). Human 18S (Assay ID: Hs99999901_s1) and human GAPDH (Assay ID: Hs03929097_g1) are used as housekeeping gene controls. […] Reactions are carried out in Applied Biosystem 7900HT. mRNA level is calculated by comparative ΔΔCt method."}, "[1]": {"tested_on": "B16 mouse metastatic melanoma tumor model", "conditions": "60 m post injection; cited from earlier work"}, "[2]": {"tested_on": "B16 mouse metastatic melanoma tumor model", "assay": "Tumor and kidney accumulation of click cyclized MCR1 peptide in mouse studies", "format": "in vivo", "conditions": "i.v. injection", "description": "(§1) The peptide backbone selected for the proposed investigation is based on a variant that was introduced previously with the addition of new evidence for improved internalization with the inclusion of a short polyethylene glycol linker between the chelator and the peptide backbone (FIG. 17). […] This peptide performance represents a 7-fold improvement in tumor:kidney ratio compared to the Re-cyclized peptide used previously. The use of the Re-cyclized peptide is for comparison to the previously published alpha-particle MCR1-targeted therapy study (using B16 mouse melanoma tumors). (Leachman S A, Cassidy P B, Chen S C, Curiel C, Geller A, Gareau D, Pellacani G, Grichnik J M, Malvehy J, North J, Jacques S L, Petrie T, Puig S, Swetter S M, Tofte S, Weinstock M A. Methods of Melanoma Detection. Cancer Treat Res. 2016; 167:51-105.) Thus, the DOTA-C-MCR1 (published previously) and new PSC-C-MCR1 peptides shown in FIG. 17 are used to take advantage of the observed improved tumor:kidney ratio.\n(§2) Preliminary data support the hypothesis that co-injection of PBA with [^203Pb]MCR1-targeted peptides can reduce kidney accumulation of the radiopeptide (FIGS. 14A-B), while improving tumor accumulation in mice bearing human metastatic melanoma tumors (FIG. 14B imaging; FIGS. 15A-B therapy). […]"}, "[3]": {"assay": "Tumor and kidney accumulation of click cyclized MCR1 peptide in mouse studies", "format": "in vivo", "conditions": "kidney, iv, 90 min. post i.v. injection", "description": "as §1, §2"}, "metastatic melanoma": {"tested_on": "metastatic melanoma", "conditions": "patients, cited from earlier work"}, "[4]": {"tested_on": "BRAFi-resistant A375VR cells", "assay": "Clonogenic survival of BRAFi-resistant melanoma cells", "format": "cell-based, human", "conditions": "5 μM vemurafenib in the absence of PBA", "protocol": "FIGS. 13A-13B. PBA treatment promotes cell death of BRAFi-resistant metastatic melanoma and upregulates MCR1 expression in a time dpe. (A) BRAFi-resistant A375VR cells were incubated with 5 μM vemurafenib in combination with ER-stress-relieving drug 4-PBA for up to 6 days. […] (B) Flow cytometry analysis of MCR1 expression in A2058 and A375 malignant melanoma cells. Cells were treated with 3 mmole 4-PBA for 4 h and 24 h (n=3). The treated and untreated (control) cells were stained with anti-MC1R-phycoerythrin (PE) monoclonal antibody conjugate. Fluorescence intensity was corrected by auto-fluorescence of cells without staining and data were expressed as relative fluorescence intensity (IF) (vs. control)±SD.\nAccumulation of misfolded-proteins causes upregulation and detachment of ER resident protein GRP78 from ER sensors proteins—activating the unfolded protein response (UPR) and downstream signaling pathways (including autophagy). […] Thus, the potential for a pharmacological treatment that would sensitize BRAFi-resistant cells to BRAFi by reducing ER-stress was considered. BRAFi-resistant A375VR melanoma cells were incubated with BRAFi vemurafenib alone and in combination with ER-stress relieving PBA."}},
  "note": "Positions of bridges follow the written chain, without caps; N, C: chain ends. Non-standard residues stand in square brackets, D forms with d. Residues, ends and D or L forms follow the SMILES beside them. Groups on a side chain read outwards from the residue. Triazole bridges read from a SMILES are 1,4-linked. *: point of attachment. DOTA = O=C(O)CN1CCN(CC(=O)O)CCN(CC(=O)*)CCN(CC(=O)O)CC1; Lys(N3) = [N-]=[N+]=NCCCC[CH](N)C(=O)O; Nle = CCCC[CH](N)C(=O)O; Pra = C#CC[CH](N)C(=O)O; PEG2 = NCCOCCOCCC(=O)O",
  "data": [
    {"compound": "O=C(CCCCCCC(=O)Nc1ccccc1)NO", "note": "[Vorinostat]", "values": [
      {"measurement": "enhancement of MCR1 expression", "setting": "MCR1 expression; human melanoma cells, incubation with drug", "result": "up to 12 fold"},
      {"measurement": "MCR1 expression by RT-PCR", "setting": "MC1R expression", "result": "Enhanced expression of MCR1"}
    ]},
    {"compound": "CCCCC(NC(C)=O)C(=O)NC1Cc2cn(nn2)CCCCC(C(=O)NC(CCCCNC(=O)CCOCCOCCNC(=O)CN2CCN(CC(=O)O)CCN(CC(=O)O)CCN(CC(=O)O)CC2)C(N)=O)NC(=O)C(Cc2c[nH]c3ccccc23)NC(=O)C(CCCNC(=N)N)NC(=O)C(Cc2ccccc2)NC(=O)C(Cc2c[nH]cn2)NC1=O", "note": "(stereo not shown) [[^68Ga]DOTA-C-MCR1, metal not drawn] (Ac-[Nle][Pra]HFRW[Lys(N3)]K([PEG2-DOTA])-NH2; triazole 2-7; configuration not given here)", "values": [
      {"measurement": "tumor:kidney ratio", "setting": "[1]", "result": 3.4},
      {"measurement": "injected dose per gram (tumor)", "setting": "[2]", "result": "up to 16 % ID/g"},
      {"measurement": "tissue uptake at 1.5 h", "setting": "[3]", "result": "< 5", "unit": "%ID/g"}
    ]},
    {"compound": "O=C(c1ccc(F)c(F)c1Nc1ccc(I)cc1F)N1CC(O)([C@@H]2CCCCN2)C1", "note": "[cobimetinib]", "values": [
      {"measurement": "MCR1 expression", "setting": "MCR1 expression", "result": "upregulate MCR1 expression"}
    ]},
    {"compound": "CC(C)(C)c1nc(-c2cccc(NS(=O)(=O)c3c(F)cccc3F)c2F)c(-c2ccnc(N)n2)s1", "note": "[dabrafenib]", "values": [
      {"measurement": "MCR1 expression", "setting": "MCR1 expression", "result": "upregulate MCR1 expression"}
    ]},
    {"compound": "CCCS(=O)(=O)Nc1ccc(F)c(C(=O)c2c[nH]c3ncc(-c4ccc(Cl)cc4)cc23)c1F", "note": "[vemurafenib]", "values": [
      {"measurement": "MCR1 expression", "setting": "MCR1 expression", "result": "upregulate MCR1 expression"},
      {"measurement": "overall survival at 6 months", "setting": "metastatic melanoma; approval trial", "result": 84, "unit": "%"},
      {"measurement": "slowing of tumor progression", "setting": "metastatic melanoma; metastatic melanoma", "result": "about 5.3 months"},
      {"measurement": "clonogenic survival", "setting": "[4]", "result": "No change in clonogenic survival"}
    ]},
    {"compound": "ipilimumab: immune-checkpoint inhibitor", "values": [
      {"measurement": "improvement in overall survival", "setting": "metastatic melanoma; basis of approval", "result": 3.7, "unit": "months"},
      {"measurement": "overall response", "setting": "metastatic melanoma", "result": "< 15", "unit": "%"}
    ]}
  ]
}
